The values that follow come from patent publication US20170000126A1, “METHOD FOR INHIBITING CONIDIAL GERMINATION AND MYCELIAL GROWTH OF FUNGI SYMBIOTICALLY ASSOCIATED WITH BARK BEETLES” (Montana State University - Billings, priority 2015, published 2017).

Structures are written as SMILES.

One experiment deals with C. albicans. The settings on record: previous finding of the inventors (ref. 5); cited from earlier work.
The test system of experiment [1] is Grosmannia clavigera. The experiment can be described thus: disk diffusion assay. In kind it is cell-based. The settings on record: G. clavigera; 50-300 μg per disk. Here is the method: (§1) The second assay is based on the standard “disk diffusion assay” routinely used in antimicrobial testing. Fungi are grown and harvested as for the microplate assay. After diluting 1:10, 150 μl of filtered conidia are spread evenly onto an Malt Extract Agar (MEA) plate. For each plate, 50 μg (0.12 μmole), 100 μg (0.25 μmole), 200 μg (0.50 μmole) and 300 μg (0.75 μmole) of the appropriate molecule (dissolved in DMSO) are spotted onto four separate Whatman Grade AA 6 mm filter disks. A control disk with 20 μl of DMSO only is also prepared. The DMSO is allowed to evaporate completely from each disk at room temperature and then the molecule-impregnated disks are positioned equidistant from each other on a plate. Plates are incubated at room temperature for 3 to 7 days, depending on the fungal species. At the end of the incubation period, the zone of inhibition (i.e., the region around each disk where no growth is visible) is measured from edge to edge of visible growth across and over the center of the disk. Images of the disk assays are obtained using an Epson Perfection V750 Pro desktop scanner.
(§2) Strains of G. clavigera, O. montium and C. brevicomi were obtained from Dr. Diana Six at the University of Montana and maintained on MEA plates (see below) at room temperarture.
(§3) Each small molecule was dissolved in dimethyl sulfoxide (DMSO) as a 10 mM stock and diluted directly into 100 μl of the appropriate YPD medium at 50 μM, 100 μM, 200 μM and 300 μM final concentration (for the microplate assay) or spotted onto Whatman 6 mm filter disks in 50 microgram (μg), 100 μg, 200 μg or 300 μg amounts (for the disk diffusion assay). The control condition (no small molecule) included DMSO to a concentration equivalent to that of the small molecule-containing wells or filter disks.
(§4) In order to identify additional inhibitors of morphogenesis, we employed a core structure search of the Chembridge chemical database and identified 72 compounds of related structure to BH3I-1 (the “core structure” used in the database searches was defined as the benzylidene group attached to a thiazolidine ring). The BH3I-1-related molecules were tested in the disk diffusion assay (200 μg per disk) for anti-fungal activity against all three species of bark beetle-associated fungi. […] These molecules were retested three separate times with 50, 100, 200 and 300 μg per disk (FIGS. 6, 7, 8, 9, 10).
In general terms: Agar diffusion results depend on both activity and mobility in agar.

Experiment [2] concerns Ceratocystiopsis brevicomi. The experiment can be described thus: disk diffusion assay. The conditions noted are these: C. brevicomi; 50-300 μg per disk. In kind it is cell-based. Here is the method:
as §1, §2, §3, §4

The subject of experiment [3] is Ophiostoma montium. The experiment in a line: disk diffusion assay. The conditions noted are these: O. montium; 50-300 μg per disk. In kind it is cell-based. Here is the method:
as §1, §2, §3, §4

Experiment [4] deals with Grosmannia clavigera. The experiment in a line: microplate assay (conidial germination and mycelial growth). The format is cell-based. The settings on record: G. clavigera. The procedure:
(§5) In the first assay, referred to as the “microplate assay”, fungi are first grown in liquid medium at 25° C. for 48 hours, and conidia are harvested by filtration through cheese cloth. The conidia are then transferred to the wells of an optical microplate containing (i) growth medium and (ii) varying concentrations of BH3I-1 (typically 0, 50, 100, 200 and 300 μM BH3I-1). The microplates are incubated for up to 120 hrs at 25° C. Germination and mycelial growth are monitored visually with a Nikon TE200 inverted microscope and spectrophotometrically in a Biotek Synergy H4 plate reader. For the spectrophotometric analysis, Optical Density 600 (OD600) readings are taken every six hours over the course of the experiment.
as §2
(§6) YPD medium (1% Yeast Extract, 2% Peptone and 2% Dextrose), a standard fungal growth medium, is used for these experiments. YPD plates included 1.5% agar.
as §3

Experiment [5] deals with Ceratocystiopsis brevicomi. The description is as above. The format is cell-based. The conditions noted are these: C. brevicomi. The procedure:
as §5, §2, §6, §3

The subject of experiment [6] is Ophiostoma montium. The description is as above. The conditions noted are these: O. montium. The format is cell-based. Here is the method:
as §5, §2, §6, §3

Regarding `CC(C)C(C(=O)O)N1C(=O)C(=Cc2ccc(Br)cc2)SC1=S` (stereo not drawn) [BH3I-1, 5-(p-Bromobenzylidine)-α-isopropyl-4-oxo-2-thioxo-3-thiozolidineacetic acid], the “inhibition of morphogenesis (yeast-to-filamentous growth transition)” value in the experiment on C. albicans is “inhibits”. For the same compound, the “anti-fungal activity (inhibition of conidial germination and mycelial growth)” value in the experiment on Grosmannia clavigera [1] is “inhibit the conidial germination and mycelial growth”; in experiment [2], “inhibit the conidial germination and mycelial growth”; with Ophiostoma montium [3], “inhibit the conidial germination and mycelial growth”. Further, the “conidial cells failed to germinate” value in the experiment on Grosmannia clavigera [4] (100 μM) is given as “approximately 80%”. Besides, the “mycelial growth of conidia that did germinate” value with Grosmannia clavigera [4] (100 μM) is “mycelia grew for a few hours and then stopped”. Also, in the experiment with Grosmannia clavigera [4] (25° C., YPD), the “time for which growth inhibition was maintained” value was 120 h. Further, the “inhibition of conidial germination and mycelial growth” value was “inhibited conidial germination and mycelial growth” in experiment [5]; “inhibited conidial germination and mycelial growth” with Ophiostoma montium [6].
As for `CC(C)C(C(=O)O)N1C(=O)C(=Cc2ccc(Cl)cc2)SC1=S` (stereo not drawn) [BH3I-1-12, 2-[5-(4-chlorobenzylidene)-4-oxo-2-thioxo-1,3-thiazolidin-3-yl]-3-methylbutanoic acid], the “anti-fungal activity (inhibition of conidial germination and mycelial growth)” value in the experiment on Grosmannia clavigera [1] is “inhibit the conidial germination and mycelial growth”; in experiment [2], “inhibit the conidial germination and mycelial growth”; in the experiment on Ophiostoma montium [3], “inhibit the conidial germination and mycelial growth”.
With `CCCC(C(=O)O)N1C(=O)C(=Cc2ccc(O)cc2)SC1=S` (stereo not drawn) [BH3I-1-66, 2-[5-(4-hydroxybenzylidene)-4-oxo-2-thioxo-1,3-thiazolidin-3-yl]pentanoic acid], the “anti-fungal activity (inhibition of conidial germination and mycelial growth)” value is “inhibit the conidial germination and mycelial growth” with Grosmannia clavigera [1]; “inhibit the conidial germination and mycelial growth” in experiment [2]; “inhibit the conidial germination and mycelial growth” with Ophiostoma montium [3].
In the case of `CC(C)c1ccc(C=C2SC(=S)N(CC(=O)O)C2=O)cc1` [BH3I-1-68, [5-(4-isopropylbenzylidene)-4-oxo-2-thioxo-1,3-thiazolidin-3-yl]acetic acid], the “anti-fungal activity (inhibition of conidial germination and mycelial growth)” value in the experiment with Grosmannia clavigera [1] is “inhibit the conidial germination and mycelial growth”; in experiment [2] it was “inhibit the conidial germination and mycelial growth”; with Ophiostoma montium [3], “inhibit the conidial germination and mycelial growth”.
As to `CCCC(C(=O)O)N1C(=O)C(=Cc2ccccc2Cl)SC1=S` (stereo not drawn) [BH3I-1-69, 2-[5-(2-chlorobenzylidene)-4-oxo-2-thioxo-1,3-thiazolidin-3-yl]pentanoic acid], the “anti-fungal activity (inhibition of conidial germination and mycelial growth)” value in the experiment on Grosmannia clavigera [1] was “inhibit the conidial germination and mycelial growth”; in experiment [2], “inhibit the conidial germination and mycelial growth”; in the experiment with Ophiostoma montium [3], “inhibit the conidial germination and mycelial growth”.
